Target: FXR (Homo sapiens (Human), UniProt Q96RI1)
Experiment: FXR EC50 (FXR agonist activity reported with each example)
Assay type: cell-based

Sequence of FXR (Q96RI1 262-486): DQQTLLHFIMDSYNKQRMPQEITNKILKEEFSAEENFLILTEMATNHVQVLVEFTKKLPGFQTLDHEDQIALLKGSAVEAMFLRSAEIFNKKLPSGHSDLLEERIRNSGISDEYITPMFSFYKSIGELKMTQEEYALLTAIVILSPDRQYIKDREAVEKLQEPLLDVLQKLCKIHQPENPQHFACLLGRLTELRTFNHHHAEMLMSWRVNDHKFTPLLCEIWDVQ

Row | SMILES | EC50
1 | COc1ccc(-c2noc(C34CCC(/C=C/c5c(-c6c(Cl)cncc6Cl)noc5C5CC5)(CC3)CC4)n2)cc1C(=O)NS(=O)(=O)C1CC1 [Example 439, (E)-5-(5-(4-(2-(5-cyclopropyl-3-(3,5-dichloropyridin-4-yl)isoxazol-4-yl)vinyl)bicyclo[2.2.2]octan-1-yl)-1,2,4-oxadiazol-3-yl)-N-(cyclopropylsulfonyl)-2-methoxybenzamide] | 280 nM
2 | CS(=O)(=O)NC(=O)c1cc(-c2noc(C34CCC(/C=C/c5c(-c6c(Cl)cncc6Cl)noc5C5CC5)(CC3)CC4)n2)cc(C(F)(F)F)c1 [Example 440, (E)-3-(5-(4-(2-(5-cyclopropyl-3-(3,5-dichloropyridin-4-yl)isoxazol-4-yl)vinyl)bicyclo[2.2.2]octan-1-yl)-1,2,4-oxadiazol-3-yl)-N-(methylsulfonyl)-5-(trifluoromethyl)benzamide] | 400 nM
3 | NC(=O)c1cc(-c2noc(C34CCC(/C=C/c5c(-c6c(Cl)cncc6Cl)noc5C5CC5)(CC3)CC4)n2)cc(C(F)(F)F)c1 [Example 441, (E)-3-(5-(4-(2-(5-cyclopropyl-3-(3,5-dichloropyridin-4-yl)isoxazol-4-yl)vinyl)bicyclo[2.2.2]octan-1-yl)-1,2,4-oxadiazol-3-yl)-5-(trifluoromethyl)benzamide] | 150 nM
4 | O=C(O)c1cc(F)cc(-c2noc(C34CCC(/C=C/c5c(-c6c(Cl)cncc6Cl)noc5C5CC5)(CC3)CC4)n2)c1 [Example 442, (E)-3-(5-(4-(2-(5-cyclopropyl-3-(3,5-dichloropyridin-4-yl)isoxazol-4-yl)vinyl)bicyclo[2.2.2]octan-1-yl)-1,2,4-oxadiazol-3-yl)-5-fluorobenzoic acid] | 79 nM
5 | COC(=O)c1cc(OC(F)F)cc(-c2noc(C34CCC(/C=C/c5c(-c6c(Cl)cncc6Cl)noc5C5CC5)(CC3)CC4)n2)c1 [Example 443, (E)-methyl 3-(5-(4-(2-(5-cyclopropyl-3-(3,5-dichloropyridin-4-yl)isoxazol-4-yl)vinyl)bicyclo[2.2.2]octan-1-yl)-1,2,4-oxadiazol-3-yl)-5-(difluoromethoxy)benzoate] | 49 nM
6 | O=C(O)c1cc(OCC23CCC(/C=C/c4c(-c5c(Cl)cncc5Cl)noc4C4CC4)(CC2)CC3)cc(OC(F)F)c1 [Example 444, (E)-3-((4-(2-(5-cyclopropyl-3-(3,5-dichloropyridin-4-yl)isoxazol-4-yl)vinyl)bicyclo[2.2.2]octan-1-yl)methoxy)-5-(difluoromethoxy)benzoic acid] | 16 nM
7 | O=C(O)c1cc(-c2noc(C34CCC(/C=C/c5c(-c6c(Cl)cncc6Cl)noc5C5CC5)(CC3)CC4)n2)ccc1OC(F)F [Example 446, (E)-5-(5-(4-(2-(5-cyclopropyl-3-(3,5-dichloropyridin-4-yl)isoxazol-4-yl)vinyl)bicyclo[2.2.2]octan-1-yl)-1,2,4-oxadiazol-3-yl)-2-(difluoromethoxy)benzoic acid] | 350 nM
8 | Cc1cc(OCC23CCC(/C=C/c4c(-c5c(Cl)cncc5Cl)noc4C4CC4)(CC2)CC3)c2cc(C(=O)O)cc(F)c2n1 [Example 447, (E)-4-((4-(2-(5-cyclopropyl-3-(3,5-dichloropyridin-4-yl)isoxazol-4-yl)vinyl)bicyclo[2.2.2]octan-1-yl)methoxy)-8-fluoro-2-methylquinoline-6-carboxylic acid] | 2400 nM
9 | COc1c(C(=O)O)cccc1-c1noc(C23CCC(/C=C/c4c(-c5c(Cl)cncc5Cl)noc4C4CC4)(CC2)CC3)n1 [Example 448, (E)-3-(5-(4-(2-(5-cyclopropyl-3-(3,5-dichloropyridin-4-yl)isoxazol-4-yl)vinyl)bicyclo[2.2.2]octan-1-yl)-1,2,4-oxadiazol-3-yl)-2-methoxybenzoic acid] | 10 nM
10 | COc1cc(C(=O)O)ccc1OCC12CCC(/C=C/c3c(-c4c(Cl)cncc4Cl)noc3C3CC3)(CC1)CC2 [Example 450, (E)-4-((4-(2-(5-cyclopropyl-3-(3,5-dichloropyridin-4-yl)isoxazol-4-yl)vinyl)bicyclo[2.2.2]octan-1-yl)methoxy)-3-methoxybenzoic acid] | 18 nM
11 | O=C(O)c1cc(OC(F)F)c2cc(OCC34CCC(/C=C/c5c(-c6c(Cl)cncc6Cl)noc5C5CC5)(CC3)CC4)ccc2n1 [Example 451, (E)-6-((4-(2-(5-cyclopropyl-3-(3,5-dichloropyridin-4-yl)isoxazol-4-yl)vinyl)bicyclo[2.2.2]octan-1-yl)methoxy)-4-(difluoromethoxy)quinoline-2-carboxylic acid] | 35 nM
12 | O=C(O)c1cc(C(F)(F)F)c2cc(OCC34CCC(/C=C/c5c(-c6c(Cl)cncc6Cl)noc5C5CC5)(CC3)CC4)ccc2n1 [Example 452, (E)-6-((4-(2-(5-cyclopropyl-3-(3,5-dichloropyridin-4-yl)isoxazol-4-yl)vinyl)bicyclo[2.2.2]octan-1-yl)methoxy)-4-(trifluoromethyl)quinoline-2-carboxylic acid] | 14 nM
13 | O=C(O)c1cccc2nc(C34CCC(OCc5c(-c6c(Cl)cccc6Cl)noc5C5CC5)(CC3)CO4)sc12 [Example 454, 2-(4-((5-cyclopropyl-3-(2,6-dichlorophenyl)isoxazol-4-yl)methoxy)-2-oxabicyclo[2.2.2]octan-1-yl)benzo[d]thiazole-7-carboxylic acid] | 680 nM
14 | COc1ccc(-c2noc(C34CCC(OCc5c(-c6c(Cl)cncc6Cl)noc5C5CC5)(CC3)CO4)n2)cc1C(=O)O [Example 455, 5-(5-(4-((5-cyclopropyl-3-(3,5-dichloropyridin-4-yl)isoxazol-4-yl)methoxy)-2-oxabicyclo[2.2.2]octan-1-yl)-1,2,4-oxadiazol-3-yl)-2-methoxybenzoic acid] | 290 nM
15 | O=C(O)c1cccc2nc(C34CCC(CCc5c(-c6ccccc6OC(F)(F)F)noc5C5CC5)(CC3)CC4)sc12 [Example 456, 2-(4-(2-(5-cyclopropyl-3-(2-(trifluoromethoxy)phenyl)isoxazol-4-yl)ethyl)bicyclo[2.2.2]octan-1-yl)benzo[d]thiazole-7-carboxylic acid] | 22 nM
16 | O=C(O)c1ccc(C23CCC(/C=C/c4c(-c5c(Cl)cncc5Cl)noc4C4CC4)(CC2)CO3)cc1 [Example 457, (E)-4-(4-(2-(5-cyclopropyl-3-(3,5-dichloropyridin-4-yl)isoxazol-4-yl)vinyl)-2-oxabicyclo[2.2.2]octan-1-yl)benzoic acid] | 87 nM
17 | O=C(O)c1cc(F)cc(-c2noc(C34CCC(OCc5c(-c6c(Cl)cncc6Cl)noc5C5CC5)(CC3)CC4)n2)c1 [Example 458, 3-(5-(4-((5-cyclopropyl-3-(3,5-dichloropyridin-4-yl)isoxazol-4-yl)methoxy)bicyclo[2.2.2]octan-1-yl)-1,2,4-oxadiazol-3-yl)-5-fluorobenzoic acid] | 85 nM
18 | COc1ccc(C(=O)O)cc1-c1noc(C23CCC(OCc4c(-c5c(Cl)cncc5Cl)noc4C4CC4)(CC2)CC3)n1 [Example 459, 3-(5-(4-((5-cyclopropyl-3-(3,5-dichloropyridin-4-yl)isoxazol-4-yl)methoxy)bicyclo[2.2.2]octan-1-yl)-1,2,4-oxadiazol-3-yl)-4-methoxybenzoic acid] | 630 nM
19 | O=C(O)c1ccc(F)c(-c2noc(C34CCC(OCc5c(-c6c(Cl)cncc6Cl)noc5C5CC5)(CC3)CC4)n2)c1 [Example 461, 3-(5-(4-((5-cyclopropyl-3-(3,5-dichloropyridin-4-yl)isoxazol-4-yl)methoxy)bicyclo[2.2.2]octan-1-yl)-1,2,4-oxadiazol-3-yl)-4-fluorobenzoic acid] | 190 nM
20 | N#Cc1cnc2ccc(OCC34CCC(OCc5c(-c6c(Cl)cncc6Cl)noc5C5CC5)(CC3)CC4)nn12 [Example 462, 6-((4-((5-cyclopropyl-3-(3,5-dichloropyridin-4-yl)isoxazol-4-yl)methoxy)bicyclo[2.2.2]octan-1-yl)methoxy)imidazo[1,2-b]pyridazine-3-carbonitrile] | 220 nM
21 | O=C(O)c1cc(F)cc2nc(OCC34CCC(OCc5c(-c6c(Cl)cncc6Cl)noc5C5CC5)(CC3)CC4)sc12 [Example 463, 2-((4-((5-cyclopropyl-3-(3,5-dichloropyridin-4-yl)isoxazol-4-yl)methoxy)bicyclo[2.2.2]octan-1-yl)methoxy)-5-fluorobenzo[d]thiazole-7-carboxylic acid] | 41 nM
22 | O=C(O)c1cc(OCC23CCC(COCc4c(-c5c(Cl)cncc5Cl)noc4C4CC4)(CC2)CC3)cc(C(F)(F)F)c1 [Example 464, 3-((4-(((5-cyclopropyl-3-(3,5-dichloropyridin-4-yl)isoxazol-4-yl)methoxy)methyl)bicyclo[2.2.2]octan-1-yl)methoxy)-5-(trifluoromethyl)benzoic acid] | 300 nM
23 | O=C(O)c1csc(OCC23CCC(OCc4c(-c5c(Cl)cncc5Cl)noc4C4CC4)(CC2)CC3)n1 [Example 465, 2-((4-((5-cyclopropyl-3-(3,5-dichloropyridin-4-yl)isoxazol-4-yl)methoxy)bicyclo[2.2.2]octan-1-yl)methoxy)thiazole-4-carboxylic acid] | 180 nM
24 | O=C(O)c1cnc2ccc(OCC34CCC(OCc5c(-c6c(Cl)cncc6Cl)noc5C5CC5)(CC3)CC4)nn12 [Example 466, 6-((4-((5-cyclopropyl-3-(3,5-dichloropyridin-4-yl)isoxazol-4-yl)methoxy)bicyclo[2.2.2]octan-1-yl)methoxy)imidazo[1,2-b]pyridazine-3-carboxylic acid] | 390 nM
25 | O=C(O)c1cccc(-c2noc(C34CCC(/C=C/c5c(-c6c(Cl)cncc6Cl)noc5C5CC5)(CC3)CO4)n2)c1 [Example 467, (E)-3-(5-(4-(2-(5-cyclopropyl-3-(3,5-dichloropyridin-4-yl)isoxazol-4-yl)vinyl)-2-oxabicyclo[2.2.2]octan-1-yl)-1,2,4-oxadiazol-3-yl)benzoic acid] | 260 nM
26 | O=C(O)c1cc(OCC23CCC(/C=C/c4c(-c5c(Cl)cncc5Cl)noc4C4CC4)(CC2)CO3)cc(C(F)(F)F)c1 [Example 468, (E)-3-((4-(2-(5-cyclopropyl-3-(3,5-dichloropyridin-4-yl)isoxazol-4-yl)vinyl)-2-oxabicyclo[2.2.2]octan-1-yl)methoxy)-5-(trifluoromethyl)benzoic acid] | 70 nM
